Results from PubChem BioAssay AID2305 (GlaxoSmithKline (GSK), 2010).
Several values for one entry are separate records, joined by “and”; a condition that tells them apart may be missing. Equal entries are not always repeated.

The compounds below were run on P. falciparum 3D7 growth, pLDH absorbance (assay: P. falciparum 3D7 growth inhibition, dose response, strain 3D7 (AID 2305)).

SMILES | IC50
COc1ccc(CNCc2ccc(-c3ccc(-c4nc5ccc(C(F)(F)F)cc5[nH]4)s3)cc2)cc1 | 170 nM
COc1cccc(-c2nc3c(N4CCN(c5ccncc5)CC4)cccc3n2CC2CCCCCN2)n1 (configuration not stated) | 1060 nM
COc1cccc(CCNCc2ccc(-c3cccc(CNC4CCCC4)c3)cc2)c1 | 730 nM
O=C(Nc1ccccc1Cl)NC1CCC(CN2CCC(c3c[nH]c4ccccc34)CC2)CC1 (configuration not stated) | 800 nM and 750 nM
CCOc1ccccc1CNc1nccc(NCc2ccc(Cl)cc2Cl)n1 | 1100 nM
FC(F)(F)COc1c(CNCCCCCCNCc2ccc3ccccc3c2OCC(F)(F)F)ccc2ccccc12 | 760 nM
COc1ccc(CCN2CCC(Nc3nc4ccccc4n3CCc3ccc(OC)cc3)CC2)cc1 | 660 nM
O=C(N[C@@H](CC1CCCCC1)C(=O)NCc1cccc(C(F)(F)F)c1)c1ccc(O)c(-c2ccc(Cl)c(Cl)c2)c1 | 220 nM
CC(C)(CNCc1ccc(Cl)cc1)c1nc(-c2ccc(Cl)c(O)c2)c(-c2ccncc2)[nH]1 | 480 nM
O=C(C1COc2ccccc2O1)N(CCCn1ccnc1)Cc1csc(-c2ccc(CNCc3ccccc3)cc2)n1 (configuration not stated) | 620 nM
C[C@H](NC(=O)c1c(OC2CN(C(c3ccccc3)c3ccccc3)C2)c(-c2ccccc2)nc2ccccc12)C1CCCCC1 | 980 nM
CN=C(Nc1c(Cl)cccc1Cl)N(C)C | 820 nM
CC(C)(CNC(=O)[C@@H]1CCCCN1)c1nc(-c2ccc(Cl)c(O)c2)c(-c2ccncc2)[nH]1 | 840 nM
CC(Cc1ccc(C(C)(C)C)cc1)NCC(O)c1ccccc1 (configuration not stated) | 1810 nM
CSc1ccc(NC(=O)Nc2cc(C)nc3ccccc23)cc1Br | 780 nM
O=C(N[C@H]1CCN(Cc2ccc(OC3CCN(Cc4ccccc4)CC3)cc2)C1)c1ccc(Cl)c(Cl)c1 | 730 nM
COc1cc(OC)cc(C(=O)N2CCOC(CCN3CCC(c4ccccc4)CC3)(c3ccc(Cl)c(Cl)c3)C2)c1 (configuration not stated) | 440 nM
COc1ccc2nccc(N(C)CC3(O)CCC(NCc4ccc5c(n4)NC(=O)CS5)CC3)c2n1 (configuration not stated) | 700 nM
Cc1c(CNCCCNc2cc(=O)c3ccccc3[nH]2)sc(-c2ccco2)c1Br | 1020 nM
CC(C)C[C@H]1c2[nH]c3ccc(Cl)cc3c2CCN1C(=O)CCc1ccccc1 | 880 nM
CCc1ccc(CN(CCCOc2cccc(CC(=O)NCc3cnc[nH]3)c2)Cc2ccc(-n3ccnc3)cc2)cc1 | 980 nM
CC(C)(C)c1ccc2oc(=O)n(C3CCN(C(=O)c4ccc([N+](=O)[O-])o4)CC3)c2c1 | 820 nM
N=C(N)CCN(Cc1ccc(Cl)cc1)c1ccc(Cl)cc1 | 1060 nM
Cc1noc(C)c1-c1ccc2c(Nc3ccccc3C(C)(C)C)c(C(=O)NCc3ccc(OC(C)C)cc3)cnc2c1 | 910 nM
COc1cc2c(cc1C(F)(F)F)N(C(=O)Nc1cc(F)cc(-c3cccnn3)c1)CC2 | 270 nM

SMILES | IC50
Nc1nc(Nc2cccc(O)c2)nc2ccccc12 | 790 nM
O=C(Nc1cccc(CN2CCCN(Cc3cccc(O)c3)CC2)c1)c1cc2ccccc2s1 | 360 nM
c1ccc2[nH]c(-c3ccc(-c4ccc(CN5CCN(c6ccncc6)CC5)cc4)cc3)nc2c1 | 160 nM
CS(=O)(=O)CCNC(=O)c1ccc(-c2cc3c(Nc4ccc5c(cnn5Cc5ccccc5)c4)ncnc3cn2)o1 | 1000 nM
Clc1ccccc1CNc1noc(-c2sccc2Br)n1 | 790 nM
COC(=O)c1cccc(NC(=O)NC2CCN(c3ccnc(NCc4ccc(F)cc4)n3)CC2)c1 | 810 nM
Cc1cc(-c2c[nH]c3ncc(-c4cccc5ncccc45)cc23)ccc1C(=O)O | 760 nM
NC(=O)c1cccc(C(=O)Nc2cccc(-c3cccc(-c4nc5ccc(F)cc5[nH]4)c3)c2)c1 | 250 nM
Cc1cc2ccc(-c3cccc(CN)c3)cc2nc1N | 760 nM
CCCCCCCCOc1c(OCC)cc(Cc2cnc(N)nc2N)cc1OCC | 1530 nM
COc1ccc2nccc([C@@H](O)CN3CCC(NC(=O)C(c4cc5ccccc5o4)N4CCN(C(c5ccccc5)c5ccccc5)CC4)CC3)c2c1 (some centres not stated) | 150 nM
NC(N)=Nc1nc(CCCCCCCCc2csc(N=C(N)N)n2)cs1 | 600 nM
O=C(Nc1cccc(-c2nn3ccccc3c2-c2ccnc(Nc3ccccc3)n2)c1)c1c(F)cccc1F | 720 nM
NOCCCOc1ccccc1 | 320 nM
O=C(CCC1CCCC1)N(Cc1ccc(-c2ccc(CNCCc3ccccn3)cc2)cc1)CC1CCCCN1 (configuration not stated) | 1150 nM
Cc1cc(C)c(NC(=O)NC2CCN(CCCCCNC(=O)/C=C/c3ccc(Cl)c(Cl)c3)C2)c(C)c1 (configuration not stated) | 190 nM
FC(F)(F)c1ccc2c(NCCCNc3ccnc4cc(C(F)(F)F)ccc34)ccnc2c1 | 30 nM
CN1CCC(Oc2ccc(Nc3nccc(NCC(O)c4ccccc4)n3)cc2Cl)CC1 (configuration not stated) | 790 nM
Cc1nc2c(c(O)c1Cl)-c1ccc(Oc3cccc(C(F)(F)F)c3)cc1C2=O | 40 nM
COc1ccc(CNc2cc(C)nc3sc4c(c23)CCC2(C4)OCCO2)cc1 | 950 nM
N#Cc1ccccc1Sc1ccccc1C(=O)Nc1ccc2ccccc2n1 | 510 nM
O=C(Nc1ccc2ccccc2c1)N1CCC(NCc2cccc([N+](=O)[O-])c2)CC1 | 860 nM
CCCCC1(NC(=O)[C@@H](Nc2ccc(C#N)c3ccccc23)C2CCCCC2)CCCCC1 | 1120 nM
CN1CCN(CCNc2c3ccccc3nc3c2ccc2ccccc23)CC1 | 610 nM
O=C1OC(c2ccccc2)(c2ccccc2)CN1C1CCN(Cc2ccc(O)c(Cl)c2)C1 (configuration not stated) | 960 nM

SMILES | IC50
Cc1cc(N[C@@H](CC(C)C)C(=O)NCCc2ccccc2)nc(NCCc2cccs2)n1 | 1200 nM
O=[N+]([O-])c1ccc(-n2nc(Cc3ccccc3)n(Cc3cccc(F)c3)c2=S)c(C(F)(F)F)c1 | 770 nM
CC(C)CC1c2[nH]c3ccccc3c(=O)c2CN1C(=O)OC(C)(C)C (configuration not stated) | 220 nM
CC(=O)Nc1cccc(C(=O)Nc2cccc(-c3ccc(-c4nc5ccc(F)cc5[nH]4)cc3)c2)c1 | 760 nM
CCc1c(CCNCCCCCCNCCc2ccc(OC)c(OC)c2C)ccc(OC)c1OC | 1570 nM
CC(=O)N(Cc1ccc(-c2ccc(CNCCc3ccccc3)cc2)cc1)C1CCN(Cc2ccccc2)CC1 | 940 nM
CCN(CC)CCCNc1ncc2c(-c3ccc(NC(=O)Nc4cc(C(F)(F)F)ccc4F)c(F)c3)nn(C)c2n1 | 270 nM
O=C(Nc1cccc(-c2ccc(CN3CCCC3)cc2)c1)c1cccc(Cl)c1 | 430 nM
Cc1ccc(NC(=O)Nc2ccc(Cl)cc2)cc1-c1cccc(C(=O)Nc2ccc(F)cc2)c1 | 740 nM
O=c1cc(NCCCNCc2cccc(SC(F)(F)F)c2)[nH]c2ccccc12 | 720 nM
Cc1[nH]c2ccc(-c3ccc(N(C)C)cc3)cc2c(=O)c1Cl | 720 nM
O=C(NCc1ccc(F)cc1)Nc1cccc(-c2ccc(-c3nc4ccc(F)cc4[nH]3)cc2)c1 | 230 nM
Oc1cc2ccccc2cc1CNC1CCCCC1 | 590 nM
O=C(Nc1ccncc1)Nc1ccc2c(c1)CCN(C1CCC1)CC2 | 1130 nM
O=C(Nc1cc(C(F)(F)F)cc(C(F)(F)F)c1)NC(CCCN1CCC2(CC1)OCc1ccccc12)c1ccc(Cl)c(Cl)c1 (configuration not stated) | 820 nM
COc1cc(Nc2nccc(N3CCC(NC(=O)Nc4cccc(C(C)=O)c4)C3)n2)cc(OC)c1OC (configuration not stated) | 970 nM
COc1cc(CC(C)NCC(O)c2cccc(C(F)(F)F)c2)ccc1OCc1ccccc1 (configuration not stated) | 820 nM
Cn1cncc1C(=O)Nc1cccc(-c2ccc(-c3nc4ccc(C(F)(F)F)cc4[nH]3)cc2)c1 | 510 nM
Cc1cc(NCC(c2ccccc2)c2ccccc2)nc(NCc2ccc(C(F)(F)F)cc2)n1 | 250 nM
CCCCCCN1CCCN(Cc2ccc(C(=O)Nc3ccc(C)c(F)c3)cc2)CC1 | 330 nM
CC(CNCc1cn(Cc2cc(Br)cc(Br)c2)c2ccccc12)CNc1cc(=O)c2ccccc2[nH]1 (configuration not stated) | 460 nM
CN(C)C(=O)C(CC(=O)NCc1ccccc1Cl)N(C)C (configuration not stated) (tested in a mixture with another compound) | 900 nM
Cc1[nH]c(C)c(-c2ccc(-c3cccc(Cl)c3)nc2)c(=O)c1Br | 320 nM
COc1ccc2ncc(Cl)c(CCN3CCC(NCc4ccc5c(n4)NC(=O)CS5)CC3)c2c1 | 590 nM
CC(C)(C)OC(=O)NCC(=O)N(Cc1ccccc1)Cc1ccccc1 | 120 nM

SMILES | IC50
COc1ccc(Cl)cc1N1CCN(CCCNC(=O)c2ccc(-c3nc4cc5ccccc5cc4[nH]3)c(F)c2)CC1 | 800 nM
CC(NCC(O)Cn1c2ccccc2c2ccccc21)c1ccccc1 (configuration not stated) | 930 nM
COc1cc(Nc2nc(N)c3cc(OC)c(OC)cc3n2)cc(OC)c1 | 270 nM
Cc1cccc(C)c1CNc1ccnc2cc(C#N)ccc12 | 680 nM
CN1CCC(Oc2cc(NC(=O)Nc3ccc(-c4ccncc4)c(C(F)(F)F)c3)ccc2Cl)CC1 | 780 nM
CN(c1ccc(NC(=O)c2cccc(F)c2)cc1)C1CCCN(Cc2cccc(O)c2)C1 (configuration not stated) | 1300 nM
COc1ccc2nccc([C@@H](O)CN3CCC(NC(=O)c4ccc(CN5CCN(c6cccc(C)c6)CC5C)cc4)CC3)c2c1 (some centres not stated) | 210 nM
NC(N)=NC(=O)Nc1cc(Br)c(Cl)c(C(F)(F)F)c1 | 760 nM
CNc1nc(NN=Cc2cc3c(cc2[N+](=O)[O-])OCO3)nc(Nc2cccc(C(F)(F)F)c2)n1 | 770 nM
COc1cccc(CCc2ccc(O)c3c2C[C@H]2C[C@H]4[C@H](N(C)C)C(=O)C(C(N)=O)=C(O)[C@@]4(O)C(=O)C2=C3O)c1 | 850 nM
COc1ccc(O)c(Cc2cnc3nc(N)[nH]c(=O)c3c2C)c1 | 230 nM
CC(C)C[C@@H](NC(=O)NC1CCC(CCN2[C@@H]3CC[C@H]2CC(OC(=O)C(CO)c2ccccc2)C3)CC1)C(O)(c1ccccc1)c1ccccc1 (some centres not stated) | 1070 nM
CCCc1cc(N2CCC(N3CCCC3)CC2)nc(Nc2ccc(OC)cc2)n1 | 810 nM
COc1ccc2nccc([C@@H](O)CN3CCC(NCCOc4ccncc4)CC3)c2c1 | 690 nM
COc1ccc(N2CCN(CCCCNC(=O)c3ccc(NC(=O)c4cc(C(F)(F)F)cc(C(F)(F)F)c4)cc3)CC2)cc1OC | 220 nM
Cc1cccc(OCC2CCN(c3ncc(C(=O)NC4CC4)cc3Cl)CC2)c1 | 1330 nM
Oc1ccc(-c2ccccc2)cc1CN1CCCCCC1 | 1170 nM
CN(C)C=Nc1ccc(OCCCCCCOc2ccc(N=CN(C)C)cc2)cc1 | 130 nM
COc1ccc2ncc(F)c(CCN3CC[C@H](NC(=O)c4ccc5c(n4)NC(=O)CS5)[C@H](O)C3)c2n1 | 950 nM
c1cc(-c2ccc(CNCc3ccsc3)cc2)cc(-c2nc3ccccc3[nH]2)c1 | 160 nM
O=C(/C=C/c1ccc(Cl)c(Cl)c1)NC1CCC(CN2CCC(c3coc4ccccc34)CC2)CC1 (configuration not stated) | 830 nM
CNC(=O)c1ccc2[nH]cc(C3CCN(CC4CCC(NC(=O)/C=C/c5ccc(Cl)c(Cl)c5)CC4)CC3)c2c1 (configuration not stated) | 1010 nM
